Values joined by “and” are separate entries in the source; they are usually repeats but may differ in a detail not shown here. Identical values can stand only once.
Key:
[1] = target: Glycogen synthase kinase-3 alpha (Homo sapiens, UniProt P49840); assay: TR-FRET Assay
How it was run: (§1)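 Compound was preincubated 30 min in assay buffer before the kinase reaction, which was quenched with EDTA. Phosphorylation was detected by TR-FRET after adding a solution of 40 nM streptavidin-d2 and 2 nM Tb-labelled anti-pSer641 antibody.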

[2] = target: Glycogen synthase kinase-3 beta (Homo sapiens, UniProt P49841); assay: TR-FRET Assay
How it was run: as §1

Glycogen synthase kinase-3 beta, sequence (P49841 whole entry): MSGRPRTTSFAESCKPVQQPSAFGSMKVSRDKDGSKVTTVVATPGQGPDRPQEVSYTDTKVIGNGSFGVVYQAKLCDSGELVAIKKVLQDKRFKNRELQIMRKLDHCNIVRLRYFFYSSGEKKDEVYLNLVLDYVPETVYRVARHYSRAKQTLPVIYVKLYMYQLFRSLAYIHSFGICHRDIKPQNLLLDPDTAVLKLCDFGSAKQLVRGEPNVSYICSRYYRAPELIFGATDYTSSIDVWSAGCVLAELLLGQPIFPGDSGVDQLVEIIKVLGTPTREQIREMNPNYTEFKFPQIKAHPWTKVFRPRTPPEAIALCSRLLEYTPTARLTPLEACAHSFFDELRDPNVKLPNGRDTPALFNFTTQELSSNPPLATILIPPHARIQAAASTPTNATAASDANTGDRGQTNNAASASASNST
Glycogen synthase kinase-3 alpha, sequence (P49840 whole entry): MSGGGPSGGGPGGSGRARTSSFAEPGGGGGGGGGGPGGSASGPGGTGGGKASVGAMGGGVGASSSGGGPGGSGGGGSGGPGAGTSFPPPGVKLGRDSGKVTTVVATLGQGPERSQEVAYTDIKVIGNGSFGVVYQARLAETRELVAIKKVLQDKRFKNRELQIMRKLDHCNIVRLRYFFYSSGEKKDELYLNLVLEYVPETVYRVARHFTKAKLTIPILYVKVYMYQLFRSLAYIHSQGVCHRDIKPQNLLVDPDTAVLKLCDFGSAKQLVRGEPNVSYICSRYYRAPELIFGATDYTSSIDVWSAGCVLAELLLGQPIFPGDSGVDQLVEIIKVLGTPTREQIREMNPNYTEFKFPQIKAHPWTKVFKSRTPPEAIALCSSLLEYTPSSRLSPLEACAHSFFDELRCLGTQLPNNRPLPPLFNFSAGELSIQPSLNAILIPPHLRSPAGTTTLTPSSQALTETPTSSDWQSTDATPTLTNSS

IC50 [1]	IC50 [2]	SMILES
100 to 1000 nM	1000 to 5000 nM	CC[C@@]1(c2cccc(-c3cc(C)ncc3C)c2)C2=C(CC(C)(C)CC2=O)NC2N=NC(C)=C21 (stereo partly specified) [US20250313563, Compound 913019]
> 5000 nM	> 5000 nM	CC[C@]1(c2cccc(-c3ccnc4ccc(C)cc34)c2)C2=CN=NC2NC2=C1C(=O)NC(C)(C)C2 (stereo partly specified) [US20250313563, Compound 948658]
> 5000 nM	> 5000 nM	CC[C@]1(c2cccc(N(C)c3cccc(C)n3)c2)C2=CN=NC2NC2=C1C(=O)CC(C)(C)C2 (stereo partly specified) [US20250313563, Compound 932644]
< 100 nM	100 to 1000 nM	CCc1cccc(N(C)c2cccc(C3(CC)C4=CN=NC4NC4=C3C(=O)CC(C)(C)C4)c2)n1 (stereo unspecified) [US20250313563, Compound 944023]
< 100 nM	< 100 nM	CC1(C)CC(=O)C2=C(C1)NC1=C(CN=N1)C21COC2(CN(C(=O)C3CC3)C2)C1 (stereo unspecified) [US20250313563, Compound 947297]
100 to 1000 nM	> 5000 nM	CC[C@@]1(c2cccc(-c3ccnn3C)c2)C2=CN=NC2NC2=C1C(=O)NC(C)(C)C2 (stereo partly specified) [US20250313563, Compound 927390]
100 to 1000 nM	> 1700 nM	CC[C@@]1(c2cccc(C(F)(F)F)c2)C2=CN=NC2NC2=C1C(=O)CC(C)(C)C2 (stereo partly specified) [US20250313563, Compound 790755]
< 100 nM	< 100 nM	Cc1cc(-c2cccc3c2CCC[C@@]32C3=CN=NC3NC3=C2C(=O)CC(C)(C)C3)ccn1 (stereo partly specified) [US20250313563, Compound 945549]
< 100 nM	< 100 nM	CCC1(c2cccc(-c3ccnc4c3CCC4)c2)C2=CN=NC2NC2=C1C(=O)CC(C)(C)C2 (stereo unspecified) [US20250313563, Compound 943534]
< 100 nM	< 100 nM	CCC1(c2cccc(-c3cncn3C)c2)C2=CN=NC2NC2=C1C(=O)NC(C)(C)C2 (stereo unspecified) [US20250313563, Compound 945597]
> 5000 nM	> 5000 nM	CC[C@]1(c2cccc(-c3cnn(Cc4ccc(C(F)(F)F)cc4)c3)c2)C2=CN=NC2NC2=C1C(=O)NC(C)(C)C2 (stereo partly specified) [US20250313563, Compound 949511]
< 100 nM	100 to 1000 nM	CCC1(c2cccc(-c3ccnc(OC)c3)c2)C2=CN=NC2NC2=C1C(=O)CC(C)(C)C2 (stereo unspecified) [US20250313563, Compound 883850]
1000 to 5000 nM	> 5000 nM	CC[C@]1(c2cccc(-c3c(C)nn(C)c3C)c2)C2=CN=NC2NC2=C1C(=O)NC(C)(C)C2 (stereo partly specified) [US20250313563, Compound 947413]
< 100 nM and 100 to 1000 nM	< 100 nM and 1000 to 5000 nM	CC[C@@]1(c2cccc(-c3ccnn3C)c2)C2=CN=NC2NC2=C1C(=O)NC1(CCC1)C2 (stereo partly specified) [US20250313563, Compound 948358]
< 100 nM	< 100 nM and 1000 to 5000 nM	CC[C@@]1(c2cccc(N(C)c3ncccn3)c2)C2=C(CC(C)(C)NC2=O)NC2N=NC(F)=C21 (stereo partly specified) [US20250313563, Compound 949648]
< 100 nM	< 100 nM	Cc1ccc(C(=O)N2CC3(C2)CC2(CO3)C3=C(N=NC3)NC3=C2C(=O)CC(C)(C)C3)cc1 (stereo unspecified) [US20250313563, Compound 947290]
< 100 nM	< 100 nM	CN1CC2(C1)C1=C(N=NC1)NC1=C2C(=O)CC(C)(C)C1 [US20250313563, Compound 913264]
1000 to 5000 nM	> 5000 nM	CC[C@]1(c2cccc(-c3ccnc(N4CCCCC4)c3)c2)C2=CN=NC2NC2=C1C(=O)NC(C)(C)C2 (stereo partly specified) [US20250313563, Compound 948646]
< 100 nM	< 100 nM and 100 to 1000 nM	CC[C@]1(c2cccc(C(F)(F)F)c2)C2=CN=NC2NC2=C1C(=O)CC1(CCCC1)C2 (stereo partly specified) [US20250313563, Compound 801311]
< 100 nM	100 to 1000 nM	CCC1(c2cccc(C(C)C)c2)C2=CN=NC2NC2=C1C(=O)CC(C)(C)C2 (stereo unspecified) [US20250313563, Compound 801322]
< 100 nM	< 100 nM and 100 to 1000 nM	CC[C@]1(c2cccc(Cl)c2)C2=C(CC(C)(C)CC2=O)NC2N=NC(C(F)(F)F)=C21 (stereo partly specified) [US20250313563, Compound 801308]
< 100 nM	100 to 1000 nM	O=C1CC2(CCCC2)CC2=C1C1(CCOCC1)C1=C(N=NC1)N2 [US20250313563, Compound 893308]
100 to 1000 nM	100 to 1000 nM	Cc1noc(C2CCC3(CC2)C2=C(N=NC2)NC2=C3C(=O)CC(C)(C)C2)n1 (stereo unspecified) [US20250313563, Compound 943895]
< 100 nM	100 to 1000 nM	CC[C@]1(c2cccc(Br)c2)C2=CN=NC2NC2=C1C(=O)C[C@@H](C(F)(F)F)C2 (stereo partly specified) [US20250313563, Compound 826653]
< 100 nM and 100 to 1000 nM	< 100 nM and 1000 to 5000 nM	CC[C@]1(c2cccc(C3CCC3)c2)C2=CN=NC2NC2=C1C(=O)CC(C)(C)C2 (stereo partly specified) [US20250313563, Compound 949521]
< 100 nM	100 to 1000 nM	CC[C@@]1(c2cccc(-c3c(C)cncc3C)c2)C2=CN=NC2NC2=C1C(=O)CC(C)(C)C2 (stereo partly specified) [US20250313563, Compound 947659]
< 100 nM and 100 to 1000 nM	< 100 nM and 1000 to 5000 nM	CC1(C)CC(=O)C2=C(C1)NC1=C(CN=N1)C21CCC(C(F)(F)F)CC1 (stereo unspecified) [US20250313563, Compound 865193]

IC50 [1]	IC50 [2]	SMILES
100 to 1000 nM	100 to 1000 nM	CC1(C)CC(=O)C2=C(C1)NC1=C(CN=N1)C21CCC1 [US20250313563, Compound 874509]
< 100 nM and 100 to 1000 nM	< 100 nM and 100 to 1000 nM	CC[C@@]1(c2cccc(-c3c(F)cncc3Cl)c2)C2=CN=NC2NC2=C1C(=O)NC(C)(C)C2 (stereo partly specified) [US20250313563, Compound 948371]
100 to 1000 nM	1000 to 5000 nM	CCC1(c2cccc(N3[C@H](C)CCC[C@@H]3C)c2)C2=CN=NC2NC2=C1C(=O)CC(C)(C)C2 (stereo partly specified) [US20250313563, Compound 865172]
100 to 1000 nM	100 to 1000 nM	CC1(C)CC(=O)C2=C(C1)NC1=C(CN=N1)[C@]21CCOC2(CCC2)C1 [US20250313563, Compound 897756]
< 100 nM	< 100 nM	CC1(C)CC(=O)C2=C(C1)NC1=C(CN=N1)C21CCN(S(=O)(=O)c2cnn3ccccc23)CC1 [US20250313563, Compound 947615]
< 100 nM	< 100 nM and 1000 to 5000 nM	CC[C@]1(c2cccc(-c3cn(C)nc3C)c2)C2=CN=NC2NC2=C1C(=O)NC1(CCCC1)C2 (stereo partly specified) [US20250313563, Compound 950252]
< 100 nM	100 to 1000 nM	CC[C@@]1(c2cccc(C)c2)C2=CN=NC2NC2=C1C(=O)CC1(CCCC1)C2 (stereo partly specified) [US20250313563, Compound 801312]
< 100 nM	< 100 nM	CCC1(c2cccc(-c3ccnc(C)c3)c2)C2=C(CC(C)(C)NC2=O)NC2N=NC(C(F)(F)F)=C21 (stereo unspecified) [US20250313563, Compound 947858]
< 100 nM	< 100 nM	CCC1(c2cccc(N(C(C)=O)C(C)C)c2)C2=CN=NC2NC2=C1C(=O)CC(C)(C)C2 (stereo unspecified) [US20250313563, Compound 893305]
< 100 nM	< 100 nM and 100 to 1000 nM	CCC1(c2cccc(N3CCCc4ncccc43)c2)C2=CN=NC2NC2=C1C(=O)CC(C)(C)C2 (stereo unspecified) [US20250313563, Compound 889639]
100 to 1000 nM	100 to 1000 nM	C[C@H]1CC(=O)C2=C(C1)NC1=C(CN=N1)C21CCOCC1 [US20250313563, Compound 912078]
> 1700 nM	> 5000 nM	C[C@@]1(c2ccccc2)C2=C(N=NC2)NC2=C1C(=O)CC1(CCCC1)C2 [US20250313563, Compound 792339]
< 100 nM	100 to 1000 nM	CC1(C)CC(=O)C2=C(C1)NC1=C(CN=N1)C21CCc2c(Cl)cccc21 (stereo unspecified) [US20250313563, Compound 816795]
1000 to 5000 nM	> 5000 nM	CC[C@]1(c2cccc(-c3ccnc(C(F)F)c3)c2)C2=CN=NC2NC2=C1C(=O)NC(C)(C)C2 (stereo partly specified) [US20250313563, Compound 949388]
< 100 nM	1000 to 5000 nM	CCC1(c2cccc(-c3cc(C)nn3C)c2)C2=C(N=NC2)NC2=C1C(=O)NC(C)(C)C2 (stereo unspecified) [US20250313563, Compound 943371]
1000 to 5000 nM	> 5000 nM	CCC1(c2cccc(N3CCc4ccncc4C3)c2)C2=CN=NC2NC2=C1C(=O)CC(C)(C)C2 (stereo unspecified) [US20250313563, Compound 917148]
> 5000 nM	> 5000 nM	Cn1cncc1-c1cccc([C@@]2(C)C3=C(CC(C)(C)CC3=O)NC3=C2C(CC(C)(C)C)N=N3)c1 (stereo partly specified) [US20250313563, Compound 126015]
< 100 nM	< 100 nM	CC1(C)CC(=O)C2=C(C1)NC1=C(CN=N1)C21COC2(CN(C(=O)c3cccc(F)c3)C2)C1 (stereo unspecified) [US20250313563, Compound 947283]
100 to 1000 nM	100 to 1000 nM	CC[C@@]1(c2cccc(S(C)(=O)=O)c2)C2=C(CC(C)(C)NC2=O)NC2N=NC(C(F)(F)F)=C21 (stereo partly specified) [US20250313563, Compound 948422]
100 to 1000 nM	1000 to 5000 nM	CC[C@@]1(c2cccc(N(c3cccnc3)C(C)C)c2)C2=CN=NC2NC2=C1C(=O)CC(C)(C)C2 (stereo partly specified) [US20250313563, Compound 917087]
100 to 1000 nM	1000 to 5000 nM	CC[C@]1(c2cccc(-c3cncn3C)c2)C2=CN=NC2NC2=C1C(=O)CC(C)(C)C2 (stereo partly specified) [US20250313563, Compound 945620]
< 100 nM and 100 to 1000 nM	< 100 nM and 1000 to 5000 nM	CC[C@@]1(c2cccc(-c3cc(C)ncc3F)c2)C2=C(CC(C)(C)NC2=O)NC2N=NC(C(F)(F)F)=C21 (stereo partly specified) [US20250313563, Compound 949650]
100 to 1000 nM	1000 to 5000 nM	CC[C@]1(c2cccc(N(C)c3cccnn3)c2)C2=CN=NC2NC2=C1C(=O)CC(C)(C)C2 (stereo partly specified) [US20250313563, Compound 911975]
< 100 nM	< 100 nM	CCC1(c2cccc(-c3ccncc3OC)c2)C2=CN=NC2NC2=C1C(=O)CC(C)(C)C2 (stereo unspecified) [US20250313563, Compound 932627]
< 100 nM	< 100 nM	C[C@H]1C[C@@]2(CCN1S(C)(=O)=O)C1=CN=NC1NC1=C2C(=O)CC(C)(C)C1 (stereo partly specified) [US20250313563, Compound 926827]
> 5000 nM	> 5000 nM	COCCN1CC2(C1)C1=C(N=NC1)NC1=C2C(=O)CC(C)(C)C1 [US20250313563, Compound 943544]

Source: BindingDB's records for patent US20250313563 (The Broad Institute, 2025)
